From the supplement of paper PMC11061612

Columns and labels:
Assay in all cases: combination Emax (second highest fraction inhibited in the dose matrix, 72 h); higher = more inhibition; extreme values may be limits of the assay
ES8 (Ewing's Sarcoma) = system: ES8 (Ewing's Sarcoma)
Procedure, shortened: (§1)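 Cell lines grown in DMEM/F12 or RPMI with 10% FBS were plated in 1536-well plates and held 24 hours at 37°C, 5% CO2 before 72 hours of exposure to two-drug dose matrices, with DMSO typically at 0.2%. CellTiter-Glo 2.0 luminescence gave viability, which was converted to inhibition. Vehicle wells were set to 0 and blank wells to 1. Combination Emax is the second-highest inhibition in the matrix, and Bliss excess is the observed combination effect minus the expected EA + EB − EA·EB, where EA and EB are the single-agent effects.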

LN-18 (Glioblastoma) = system: LN-18 (Glioblastoma)
Procedure, shortened: as §1

TC-71 (Ewing's Sarcoma) = system: TC-71 (Ewing's Sarcoma)
Procedure, shortened: as §1

[1] = system: MS751 (Cervical Carcinoma)
Procedure, shortened: as §1

[2] = system: KARPAS-45 (T-Lymphoblastic Leukemia)
Procedure, shortened: as §1

[3] = system: SW1417 (Colorectal Carcinoma)
Procedure, shortened: as §1

[4] = system: MFM-223 (Breast Carcinoma)
Procedure, shortened: as §1

[5] = system: SW837 (Colorectal Carcinoma)
Procedure, shortened: as §1

[6] = system: SR (Other Blood Carcinomas)
Procedure, shortened: as §1

[7] = system: TOV-112D (Ovarian Carcinoma)
Procedure, shortened: as §1

[8] = system: L-540 (Hodgkin's Lymphoma)
Procedure, shortened: as §1

[9] = system: TE-6 (Esophageal Squamous Cell Carcinoma)
Procedure, shortened: as §1

[10] = system: GR-ST (B-Lymphoblastic Leukemia)
Procedure, shortened: as §1

[11] = system: HL-60 (Acute Myeloid Leukemia)
Procedure, shortened: as §1

[12] = system: SU-DHL-8 (B-Cell Non-Hodgkin's Lymphoma)
Procedure, shortened: as §1

[13] = system: NCI-H847 (Small Cell Lung Carcinoma)
Procedure, shortened: as §1

[14] = system: DiFi (Colorectal Carcinoma)
Procedure, shortened: as §1

[15] = system: MOLT-16 (T-Lymphoblastic Leukemia)
Procedure, shortened: as §1

MEL-JUSO (Melanoma) = system: MEL-JUSO (Melanoma)
Procedure, shortened: as §1

ES1 (Ewing's Sarcoma) = system: ES1 (Ewing's Sarcoma)
Procedure, shortened: as §1

Structure (SMILES) | combination Emax (ES8 (Ewing's Sarcoma)) | combination Emax (LN-18 (Glioblastoma)) | combination Emax (TC-71 (Ewing's Sarcoma)) | combination Emax [1] | combination Emax [2] | combination Emax [3] | combination Emax [4] | combination Emax [5] | combination Emax [6] | combination Emax [7] | combination Emax [8] | combination Emax [9] | combination Emax [10] | combination Emax [11] | combination Emax [12] | combination Emax [13] | combination Emax [14] | combination Emax [15] | combination Emax (MEL-JUSO (Melanoma)) | combination Emax (ES1 (Ewing's Sarcoma))
CC1(C)CCC(CN2CCN(c3ccc(C(=O)NS(=O)(=O)c4ccc(NCC5CCOCC5)c([N+](=O)[O-])c4)c(Oc4cnc5[nH]ccc5c4)c3)CC2)=C(c2ccc(Cl)cc2)C1 [Venetoclax] + C=CCn1c(=O)c2cnc(Nc3ccc(N4CCN(C)CC4)cc3)nc2n1-c1cccc(C(C)(C)O)n1 [AZD1775] (first compound max 1 µM, partner max 1 µM) | 0.94 | 0.555 | 0.424 | 0.261 | 0.955 | 0.505 | 0.457 | 0.453 | 0.995 | 0.393 | 0.957 | 0.497 | 0.813 | 0.899 | 1 | 0.992 | 0.674 | 1 | 0.521 | 0.946
COc1cccc(OCCCN)c1-c1cc(Nc2cnc(C#N)cn2)n[nH]1 [Prexasertib] + C[C@@H]1COCCN1C2=NC(=NC(=C2)C3(CC3)[S@](=N)(=O)C)C4=C5C=CNC5=NC=C4 [AZD6738] (first compound max 1 µM, 7x7, partner max 10 µM) | 0.798 | 0.797 | 0.962 | 0.383 | 0.979 | 0.629 | 0.814 | 0.752 | 1 | 0.796 | 0.963 | 0.695 | 0.829 | 0.971 | 0.964 | 1 | 0.881 | 1 | 0.695 | 1
COc1cccc(OCCCN)c1-c1cc(Nc2cnc(C#N)cn2)n[nH]1 [Prexasertib] + CN(C)CCCOc1ccc(-c2ccc3ncc4c(c3c2)n(C2CCOCC2)c(=O)n4C)cn1 [AZD0156] (first compound max 1 µM, 7x7, partner max 1 µM) | 0.837 | 0.752 | 0.977 | 0.378 | 0.971 | 0.619 | 0.74 | 0.803 | 1 | 0.614 | 0.968 | 0.567 | 0.822 | 0.956 | 0.964 | 1 | 0.878 | 1 | 0.751 | 1
CN(CCO)CC[C@H](CSc1ccccc1)Nc1ccc(S(=O)(=O)NC(=O)c2ccc(N3CCC([C@@H](O)c4ccccc4-c4ccc(Cl)cc4)CC3)cc2)cc1S(=O)(=O)C(F)(F)F [AZD4320] + CN(C)CCCOc1ccc(-c2ccc3ncc4c(c3c2)n(C2CCOCC2)c(=O)n4C)cn1 [AZD0156] (first compound max 1 µM, 7x7, partner max 1 µM) | 0.64 | 0.222 | 0.659 | 0.101 | 0.988 | 0.742 | 0.199 | 0.191 | 0.252 | 0.222 | 0.224 | 0.391 | 0.175 | 0.898 | 0.957 | 1 | 0.608 | 0.989 | 0.212 | 0.226
C[C@@H]1COCCN1c1cc(C2([S@](C)(=N)=O)CC2)nc(-c2ccnc3[nH]ccc23)n1 [AZD6738] + O=C(c1cc(Cc2n[nH]c(=O)c3ccccc23)ccc1F)N1CCN(C(=O)C2CC2)CC1 [Olaparib] (first compound max 10 µM, 7x7, partner max 10 µM) | 0.895 | 0.877 | 0.887 | 0.395 | 0.832 | 0.38 | 0.773 | 0.343 | 0.97 | 0.795 | 0.936 | 0.498 | 0.803 | 0.619 | 0.888 | 0.978 | 0.775 | 1 | 0.418 | 0.99
